Structures are written as SMILES.

In one series the test system is tubular endothelium. The following applies: dose of 1 g/kg/day; Sack 1985; cited from earlier work.
The test system of series [1] is primary cultures of proximal tubular cells. The series can be described thus: Mitochondrial activity using MTT reduction. The format is cell-based, pig. The following applies: presence of cilastatin with nephrotoxics. (Formazan colour is commonly taken as a measure of viable cells.)
Procedure: Mitochondrial functionality of PTCs was measured by metabolic reduction of 3-(4,5-dimethylthiazole-2-yl)-2,5-diphenyltetrazole bromide (MTT, supplied by Calbiochem), performed by the mitochondrial enzyme succinate dehydrogenase, yielding a blue-colored compound (formazan). […] MTT was subsequently added to each well at a final concentration of 0.5 mg/mL and incubated for 3 hours at 37° C. in the dark. Once this incubation was completed, 100 μL of lysis buffer (20% SDS in 50% N,N-dimethylformamide, pH 4.7) were added, and the plate was incubated overnight at 37° C. in the dark. Absorbance was measured at 595 nm on the following day.
Percent viability was calculated as follows:
Real time MTT reduction was measured in semiconfluent proximal cells seeded in 24-well plates (16 mm in diameter) in which culture medium was replaced by MTT at 0.5 mg/mL of final concentration in PBS. This reduction was determined by measuring absorbance at 595 nm with an Olympus IX70 inverted fluorescence microscope coupled to a photomultiplier controlled from a SLM Aminco 2000 fluorimeter. […] In this test, as in the previous ones, vancomycin was directly added to the plate during measurement of absorbance. […]
The test system of series [2] is Wistar rats. The series can be described thus: Extended in vivo study of cilastatin nephroprotection against acute toxic renal failure caused by cisplatin. The text has this: A total of 28 animals were used, which were randomized into 4 groups with a sample size n=6-8 animals per group.
Throughout the period, animals were given free access to both water and feed (standard diet) in a controlled light, temperature, and humidity environment. One day before killing, animals were introduced into metabolic cages with free access to feed and water ad libitum to collect 24-hour urine, in order to quantify urine output and protein concentration.
At the time of killing, animals (previously weighed) were anesthetized in the experimental operating room with ketamine (10 mg/kg) and diazepam (4 mg/kg) and were drawn blood by cannulation of the abdominal aorta at the bifurcation level. Blood was first incubated for 30 minutes at 37° C., and then for one hour at 4° C. Subsequent centrifugation at 2000 rpm for 15 minutes at 4° C. allowed for obtaining blood serum, which was frozen at −80° C. until use. […] Kidneys were subsequently removed, decapsulated, and kept in cold saline during their handling to minimize tissue degradation. Kidneys (right and left) were weighed and were subsequently handled similarly. […] The rest of the right kidneys, as well as left kidneys, were separated into cortex and medulla, and both samples were frozen in liquid nitrogen and stored at −80° C. until use.
Hemodynamic variables and serum and urine kidney function parameters (FIG. 14) were measured using a Dimension RxL autoanalyzer from Dade-Behring according to manufacturer instructions.
This time, urine samples were taken before killing, as indicated in the section describing the procedure.

The subject of series [3] is primary cultures of proximal tubular cells. As to conditions: co-incubation with cilastatin; 24 hours aggression (12 hours for cisplatin), long-term survival 7 days.
For series [4], the system named is cultures of cells of the proximal tubular epithelium. As to the kind of experiment: Scanning electron microscopy of cell morphology. The following applies: 11 days; cyclosporin A 1 μg/mL without or with cilastatin 200 μg/mL.
Series [5] relates to CD3+ lymphocytes (human T cells). As to conditions: cilastatin 200 μg/mL. The procedure: The sample was centrifuged at 120 g and was resuspended in 750 μL of RPMI medium (in the absence of FCS: fetal calf serum) to quantify the number of cells available using trypan blue. One hundred thousand cells per point were distributed.
Incubation was performed for 4 hours at 37° C. Cells were centrifuged for 6 minutes at 1200 rpm. The precipitate was resuspended in 100 μL of buffer (10 mmol/L HEPES, 150 mmol/L NaCl, 5 mmol/L KCl, 1 mmol/L Mg Cl2, 1.8 mmol/L CaCl2) and 5 μL of annexin-V. It was incubated in the dark for 10 minutes.
Intensity of green fluorescence of cells was quantified as displacement in the logarithmic scale from control (cells growing in 10% FCS) versus the number of cells analyzed. Cell debris was excluded from the analysis.

Series [6] has as its system primary cultures of proximal tubular cells. The following applies: 48 h, 11 nephrotoxics.
Series [7] deals with Wistar rats. As to the kind of experiment: Preliminary in vivo study of cilastatin nephroprotection against acute toxic renal failure caused by cisplatin. Also noted: species or system rat. The following applies: cisplatin 5 mg/kg plus cilastatin 75 or 150 mg/kg every 12 hours intraperitoneal. The procedure: Five animals, each subjected to a different treatment regimen, were preliminarily used.
At the time of killing, animals were weighed and anesthetized with ketamine (10 mg/kg) and diazepam (4 mg/kg). Once anesthetized, blood was drawn by cannulation of the abdominal aorta at the bifurcation level. This blood was kept for 30 minutes at 37° C. and subsequently for 1 hour at 4° C., after which it was centrifuged at 2000 rpm for 15 minutes at 4° C. This allowed for separation of blood serum, which was stored at −80° C. until use.

Series [8] deals with primary cultures of proximal tubular cells (PTCs). The series can be described thus: Cell growth dynamics in primary culture of proximal tubular cells.
Series [9] deals with primary cultures of proximal tubular cells. The following applies: cilastatin added to cultures with nephrotoxics, 24 hours.
Procedure: Cells shed to the supernatant were collected by direct aspiration using an automatic pipet, and adherent cells were separated from the culture plate by trypsinization.
The PTCs thus obtained were separately fixed and permeabilized with 70% ethanol and stored at −20° C. After removing ethanol, cells were washed two times with PBS.
The count was performed in a FACScan cytometer (Beckton Dickinson) equipped with a simple argon ion laser. Windows were fixed based on the characteristics of FSC (size), SSC (complexity), FL2-H (height), FL2-A (area), and FL2-W (width). The latter two were used to rule out cell doublets. Analysis was performed using WinMDI 2.9 software.
For series [10] the test system is unchanged. As to conditions: 24 hours, with cilastatin; vancomycin, cyclosporin, tacrolimus, acetaminophen, cisplatin, gentamicin. The procedure: Cells were subsequently detached, and the final volume obtained was recorded. Cell lysate was subjected to a thermal shock, for which it was first heated at 100° C. for 5 min and then placed on ice. Each sample was subjected to sudden decompression. Samples were centrifuged at 12000 rpm for 5 min, and supernatant was collected.
For this purpose, PTCs were incubated with the different nephrotoxics under study, and the cumulative intracellular concentration of toxics in PTCs was quantified, in accordance with the procedure described at the start of the Examples.

In the next series the test system is humans. As to conditions: period immediately subsequent to transplant; cited from earlier work.
The test system of series [11] is renal degradation of imipenem. As to conditions: with cilastatin; cited from earlier work.
Another series has as its target DHP-I (Homo sapiens, UniProt P16444). As to conditions: Koller 1985, Campbell 1988; cited from earlier work.
The text on series [12]: No data have been reported for humans. […] The resulting plot is shown in FIG. 14 (diamonds: rabbit data; triangles: rat data; blank squares: data from pig experiments; filled squares including a white point: data from the summary of product characteristics for humans).

Sequence of DHP-I (P16444 17-385): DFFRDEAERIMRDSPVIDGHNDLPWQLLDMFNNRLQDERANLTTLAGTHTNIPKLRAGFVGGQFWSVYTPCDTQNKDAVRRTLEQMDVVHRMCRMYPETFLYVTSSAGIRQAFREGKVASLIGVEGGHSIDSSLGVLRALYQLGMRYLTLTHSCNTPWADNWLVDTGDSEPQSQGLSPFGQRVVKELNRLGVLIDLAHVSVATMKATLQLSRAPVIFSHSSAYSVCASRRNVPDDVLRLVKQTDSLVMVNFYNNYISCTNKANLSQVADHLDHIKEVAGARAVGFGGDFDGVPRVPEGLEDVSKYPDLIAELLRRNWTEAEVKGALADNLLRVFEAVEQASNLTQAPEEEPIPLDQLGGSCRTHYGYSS

As for `CC1(C)C[C@@H]1C(=O)N/C(=C\CCCCSC[C@H](N)C(=O)O)C(=O)[O-].[Na+]` (relative stereo) [cilastatin, monosodium salt of [R—[R*,S*—(Z)]]-7-[(2-amino-2-carboxyethyl)thio]-2-[[(2,2-dimetylcyclopropyl)carbonyl]amino]-2-heptenoic acid], in the series on tubular endothelium, the “sign of renal toxicity” value is “could cause sloughing of tubular endothelium”. Besides, the “restoration of mitochondrial electronic transfer capacity” value in series [1] is given as “totally or partially restores”. Also, the “increase of mean weight” value with Wistar rats [2] (cilastatin 75 mg/kg every 12 hours without cisplatin) is “approximately 14 grams”. Moreover, the “proteinuria and urinary osmolality” value in the series with Wistar rats [2] (cisplatin 5 mg/kg, cilastatin 75 mg/kg every 12 hours intraperitoneal) is recorded as “completely reversed the values to normal levels”. The “FINAL WEIGHT” value in the series with Wistar rats [2] (end of the extended study (5 days), mean ± standard error) is 273 ± 7. The “cell growth / colony-forming units after nephrotoxic aggression (crystal violet)” value in series [3] is on record as “totally or partially restores cell growth”. In [4], the “cell morphology by scanning electron microscopy” value was “these changes do not usually occur”. In series [5], the “protective effect on cyclosporin A induced T cell death” value was “absence of a protective effect”. The “induction of apoptosis (nucleosomes) on co-incubation of nephrotoxics plus cilastatin” value in series [6] is “induction of apoptosis ceases or is significantly reduced”. The “weight loss or changes in plasma creatinine” value in the series on Wistar rats [7] is recorded as “no significant weight loss or changes in plasma creatinine”. The “effect of co-incubation with cilastatin on the effect of nephrotoxics on cell growth” value in [8] (cilastatin 200 μg/mL with cyclosporin A or tacrolimus) is on record as “partially prevents”. Moreover, the “effect upon growth dynamics, cell confluence, or monolayer morphology” value in [8] (increasing cilastatin doses for 14 days, up to almost 10 times plasma concentrations reached in vivo) is “No significant effect”. Further, the “day of culture from which cell growth recovers with cilastatin” value in [8] (with cyclosporin) was ≥ 11 days. Also, the “time from which cell growth recovers with cilastatin” value in series [8] (with tacrolimus (FK-506), decrease from day 7) is listed as “from the same time”. Moreover, the “number of dead cells (sloughed to supernatant, anoikis)” value in series [9] is listed as “reduced in all cases the number of dead cells”. In addition, the “intracellular accumulation of nephrotoxics” value in series [10] was “interferes with intracellular administration of all nephrotoxics tested”. Besides, the “nephrotoxicity induced by CsA” value in the series on humans is on record as “may effectively counteract”. The “urinary excretion rate of imipenem” value in series [11] is on record as “up to 70 % of the initial imipenem dose administered”. Further, the “conversion of leukotriene D4 to leukotriene E4” value at DHP-I is reported as “strongly inhibited”. Also, in series [12] (all species), the “plasma level up to which the dose/plasma level relationship is linear” value is “around 800 mg/L”. Also, the minimum effective dose in [12] (estimated) is listed as 10 mg/kg body weight. In addition, in series [12] (mean value for a human adult), the “estimated minimum nephroprotective dose in humans” value is given as 750 mg/day.

Source of the values: patent US9522128B2 (FUNDACION PARA LA INVESTIGACION BIOMEDICA DEL HOSPITAL …, priority 2008, dated 2016).
